We go through 1 substance from patent publication US8110543B2, “Anti-invasive and anti-angiogenic compositions” (Angstrom Pharmaceuticals, Inc., priority 1997, dated 2012).

In one data set the target is scuPA-suPAR complex (Homo sapiens, UniProt P00749). Briefly: Clot lysis assay ([125I] fibrin clots). The class given is biochemical. Conditions: 30 minutes after initiation of clot lysis (FIG. 3).
The test system of data set [1] is matrix metalloproteinases MMP2 and MMP9. Briefly: EnzCheck gelatinase assay (MMP activity). The class given is biochemical. Conditions: concentrations up to 100 μM; HT1080 supernatant activated with phenylmercuric acetate. On the procedure: HT1080 cells were grown in the presence of dexamethasone for 24 hrs and the supernatant collected and treated with phenylmercuric acetate to activate proMMPs.

A further data set relates to Mat B-III tumors. Description: Rat syngeneic Mat B-III breast cancer model. The data set is classed as in vivo. Conditions: 75 mg/kg/day IP b.i.d.
For a further data set, the system named is U87 tumors. Description: U87 glioblastoma orthotopic model. The class given is in vivo, mice. On the procedure: U87 cells were inoculated into the ventricles of nude mice and treatment was initiated 72 hrs after inoculation. Tumor volume was determined using caliper measurements after euthanasia and necropsy.
A: Control; B: Å6 only; C: CDDP only; D: Å6+CDDP.
U87 tumors were surgically inoculated into the cerebral ventricles of mice. The animals were allowed to recover for 72 hours at which time treatment with Å6 (75 mg/kg/day IP bid), CDDP (3 mg/kg/day given every other day from day 4×6 administrations), or a combination of Å6+CDDP was initiated,
Animals were treated for 21 days at which time they were euthanized and their brains evaluated for the presence of tumor. Transverse sections were stained with hematoxylin and eosin (H&E).
Tumor sections were also evaluated for microvessel density using antibodies specific for mouse-CD31 in immunostaining. Very few CD31^+ foci were evident in animals treated with the combination of Å6+CDDP.
Tumors were established as in the previous section, and the same therapeutic regimens were employed. Treatment was discontinued at day 21, and survival was measured. Control animals appeared moribund around day 25 and all of the animals in this group were dead by day 30.

For data set [2], the system named is rat breast cancer line Mat B III. Description: Matrigel invasion assay, Mat B-III cells. The conditions noted are these: FIG. 1 (5 μM), FIG. 7, FIG. 8. The data set is classed as cell-based. On the procedure: Several peptides were tested for anti-invasive capacity in a Matrigel® invasion assay system as indicated above (Kleinman et al., supra; Parish et al., supra). Several invasive human tumor lines (PC-3, MDA-MB-231) and non-human tumors (3LL, Mat B-III) were examined. The rat breast cancer line Mat B III and the human prostate cancer line PC-3 were initially used.
Tumor cells (5×10^5/mL, in a volume of 200 μL) in serum-free RPMI 1640 medium were added to a disposable transwell invasion chamber coated with Matrigel® (Becton Dickinson, Lincoln Park, N.J.). The invasion chambers were placed in 24-well tissue culture plates filled with serum-free RPMI-1640 and the plates were placed in an atmosphere of 5% CO2 in humidified air at 37° C. for 48-72 hours. The chambers were then removed, inverted, and the cells which had invaded (and now appeared on the bottom face of the invasion chamber) were fixed and stained using Diff-Quick® (Scientific Products). Cells were counted in 10 different fields on each filter and an average obtained.

The next data set concerns the target plasmin (Homo sapiens, UniProt P00747). Briefly: Plasmin activity. The class given is biochemical.
The test system of the next data set is HUVEC. Briefly: HUVEC proliferation assay. The class given is cell-based, human. On the procedure: HUVEC were plated on gelatin and allowed to adhere for 4 hrs in the presence of 2% FBS. bFGF (1 ng/mL) and the test compounds were added after 4 hours and the % proliferation (where bFGF induced proliferation was 100% and proliferation in the absence of bFGF was 0) was determined using MTS. FIG. 4: the Å6 (50 μg/mL) concentration was kept constant and the concentration of cisplatin (“CDDP”) was varied; FIG. 5: CDDP was kept constant at a sub-optimal dose (1 μg/mL) and Å6 was varied.
Å6 was tested for its ability to inhibit HUVEC proliferation.

The conditions of data set [3]: cynomolgus monkey, in vivo, iv, 37.5 mg/kg.
Excerpt: An LC/MS assay developed for the detection of Å6 in plasma has been validated for mouse and monkey plasma.
The subject of the next data set is PC-3 cells. Briefly: PC-3 CAT metastasis model. The conditions noted are these: minipump 100 mg/kg/day, 14 or 21 days. The data set is classed as in vivo, mice. On the procedure:
The compounds of this invention are also tested for inhibition of late metastasis using an experimental metastasis model (Crowley et al., 1993). Late metastasis involves the steps of attachment and extravasation of tumor cells, local invasion, seeding, proliferation and angiogenesis.
Human prostatic carcinoma cells (PC-3) transfected with a reporter gene, preferably the green fluorescent protein (GFP) gene, but as an alternative with a gene encoding the enzymes chioramphenicol acetyl-transferase (CAT), luciferase or LacZ. This permits utilization of either of these markers (fluorescence detection of GFP or histochemical colorimetric detection of enzymatic activity) for following the fate of these cells. Cells are injected, preferably iv, and metastases identified after about 14 days, particularly in the lungs but also in regional lymph nodes, femurs and brain. This mimics the organ tropism of naturally occurring metastases of prostate cancer. For example, GFP-expressing PC-3 cells (1×10^6 cells per mouse) are injected iv into the tail veins of nude (nu/nu) mice. Animals are also implanted with mini-pumps (sub-dermally on the back) dispensing either the test compound (at least about 100 mg/kg/day) or vehicle. The animals are euthanized after 14 days and their organs prepared for histological examination. Single metastatic cells and foci are visualized and quantitated by fluorescence microscopy or light microscopic histochemistry or by grinding the tissue and quantitative colorimetric assay of the detectable label.
In addition to Å6, other related peptide compounds described above are tested for efficacy in vivo in the 3LL model (as provided above) as well as the PC-3 model. PC-3 cells transfected with the gene encoding the enzyme chloramphenicol acetyl-transferase (CAT) are inoculated into mice i.v. at doses of 1×10^6 cells per mouse. These mice are implanted with a minipump, as above, which dispenses 100 mg/kg/day of the peptide or vehicle over a period of 14 or 21 days. At termination of treatment, the animals are euthanized and the tumor marker probe is assayed in regional lymph nodes, femurs, lungs, and brain.

A further data set concerns the target uPAR (Homo sapiens, UniProt Q03405). Briefly: Binding of uPA to uPAR.
A further data set concerns Mat B-III. Briefly: In vitro proliferation, Mat B-III cells. The class given is cell-based, rat. On the procedure: (§1) Å6 was also tested for its ability to inhibit the proliferation of cells other than endothelial cells in vitro.
In the next data set the test system is HeLa. Description: In vitro proliferation, HeLa cells. The class given is cell-based. On the procedure:
as §1

In a further data set the test system is U87. Briefly: In vitro proliferation, U87 cells. The class given is cell-based, human. On the procedure:
as §1
Anti-angiogenic therapy is expected to produce both anti-proliferative and pro-apoptotic effects that would “prime” the tumor chemotherapy with these alkylating agents. The proliferative index in the U87 tumors was evaluated using Ki-67 staining followed by digitization of the staining intensity and quantitation.

“Also recorded” adds a separate entry of the source. Where only a bound is given, the exact number is not on record here.

Sequence of plasmin (P00747 97-580 limits assumed, species assumed): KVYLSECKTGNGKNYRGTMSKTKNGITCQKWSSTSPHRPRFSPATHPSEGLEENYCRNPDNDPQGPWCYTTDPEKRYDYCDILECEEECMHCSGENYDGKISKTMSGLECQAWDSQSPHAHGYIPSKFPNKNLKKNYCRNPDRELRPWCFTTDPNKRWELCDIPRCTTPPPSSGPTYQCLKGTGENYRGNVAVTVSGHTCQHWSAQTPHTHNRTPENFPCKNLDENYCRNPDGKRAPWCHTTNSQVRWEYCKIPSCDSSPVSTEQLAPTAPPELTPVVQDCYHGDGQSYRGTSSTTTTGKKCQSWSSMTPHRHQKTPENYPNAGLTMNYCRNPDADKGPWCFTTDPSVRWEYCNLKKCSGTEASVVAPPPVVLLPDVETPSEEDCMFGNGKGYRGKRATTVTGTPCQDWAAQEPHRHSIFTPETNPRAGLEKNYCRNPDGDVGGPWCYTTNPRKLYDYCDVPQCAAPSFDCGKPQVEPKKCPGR
Sequence of plasmin (P00747 581-810 limits assumed, species assumed): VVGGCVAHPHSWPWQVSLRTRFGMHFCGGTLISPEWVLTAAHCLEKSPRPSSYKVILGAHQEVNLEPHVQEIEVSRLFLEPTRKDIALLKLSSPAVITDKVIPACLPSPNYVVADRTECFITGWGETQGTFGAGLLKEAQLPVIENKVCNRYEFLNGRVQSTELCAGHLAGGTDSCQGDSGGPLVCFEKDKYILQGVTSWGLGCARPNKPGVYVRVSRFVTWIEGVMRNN
Description for scuPA-suPAR complex: Fibrin clots were formed by supplementing plasma with [^125I] fibrinogen. Clotting was initiated by adding thrombin and calcium to the plasma mixture. Clots were washed to remove any free radioactivity, plasminogen and the activator to be tested were added to the clot and the release of [^125I] fibrin degradation products was monitored. The data presented in this figure is at 30 minutes after initiation of clot lysis. scuPA-suPAR: dose response with Å6 on clot lysis by scuPA-suPAR complex; scuPA: dose response on clot lysis by scuPA alone; scuPA/suPAR+scrambled pep: dose response with a scrambled version of Å6 (Ac-[sequence]-Am) (SEQ ID NO: 10).

For “Ac-KPSSPPEE-NH2 [Å6, CH3CO-Lys-Pro-Ser-Ser-Pro-Pro-Glu-Glu-NH2]”, the solubility is above 100 mg/mL. Moreover, on scuPA-suPAR complex, the “scuPA-suPAR mediated clot lysis” value is “inhibits”. Besides, the “inhibition of gelatinase activity” value in data set [1] is “did not inhibit”. For the same substance, in the data set on Mat B-III tumors, the “macroscopic metastasis (number of macroscopic foci)” value is reported as “continued to be suppressed; also recorded: inhibited” and the “tumor growth (volume of primary tumor)” value was “inhibits”. The “differentiation of the vessels” value in the data set with U87 tumors (qualitative) was “fewer branching vessels”. In addition, in the data set with U87 tumors (tumor sections, mouse-CD31 immunostaining), the “microvessel density (CD31+ foci), angiogenesis” value was “inhibited angiogenesis to some extent”. Besides, the “invasion of Mat B-III cells through Matrigel” value in data set [2] is “optimal; also recorded: inhibits the invasion”. The “invasion of Mat B-III cells through Matrigel” value in data set [2] (listed as Ac-KPSSPPEE-Am) is “inhibited the invasion”. Further, the “effect on the activity of plasmin directly” value on plasmin was “did not affect”. Besides, the “potentiation of the anti-proliferative activity of cisplatin (CDDP) against endothelial cells” value in the data set with HUVEC (CDDP 1 μg/mL, Å6 varied (FIG. 5)) is on record as “did not potentiate”. The “inhibition of HUVEC proliferation” value with HUVEC (concentrations as high as 312 μg/mL (340 μM), gelatin, 2% FBS) is recorded as “No inhibition”. Moreover, in data set [3], the clearance was 0.7 mL/min/kg and the half-life is 24 min. Also, the “metastasis, PC-3 model” value in the data set with PC-3 cells was “markedly inhibited”. Moreover, at uPAR, the “inhibition of binding of uPA to uPAR” value is “no effect”. Besides, the “anti-proliferative effect, Mat B-III” value with Mat B-III is recorded as “No anti-proliferative effects”. Further, in the data set with HeLa, the “anti-proliferative effect, HeLa” value is recorded as “No anti-proliferative effects”. In addition, in the data set on U87, the “anti-proliferative effect, U87” value is recorded as “No anti-proliferative effects; also recorded: did not inhibit”; the “potentiation of the anti-proliferative activity of CDDP against U87 cells” value is recorded as “did not potentiate”; the “potentiation of the pro-apoptotic activity of CDDP” value was “nor did it potentiate”.
